In test [1] the target is T1, PIK3R3-C SH2 domain (Homo sapiens, UniProt Q92569).
T1 construct: thioredoxin; made in house; host or cells: E. coli BL21(DE3)pLysS
Nature of the test: biochemical. The format is binding. The following applies: FP, PIK3R3-C; mean; NA = no interaction detected.

The target in test [2] is T1, PIK3R3-C SH2 domain. The test can be described thus: Surface plasmon resonance (Biacore 3000). The format is binding. The following applies: SPR, NA = no interaction detected. As to the method:
(§1) All SPR experiments were performed using Biacore 3000 (GE HealthCare, Piscataway, NJ) instrumentation. 6X His-tagged SH2 domain proteins were immobilized on a nitriloacetic acid (NTA) sensor chip (GE HealthCare, Piscataway, NJ) charged with Ni^2+ ions. Dye-free ErbB family peptides were applied to the sensor chip in a single flow cell in solution phase (while the other flow cell was used as a reference control) and binding events were measured under equilibrium conditions. FP false positive [drawing 7] (FPR), false discovery [drawing 8] (FDR), and false negative [drawing 9] (FNR) rates were calculated by defining true positives (TP) as interactions detected by both FP and SPR, true negatives (TN) as interactions detected by neither FP nor SPR; false positives as interactions identified by FP but not validated by SPR; and false negatives (FN) as interactions missed by FP but detected by SPR. Additional details for all methods are provided in the Supplementary Methods.
A randomly selected set of 12 recombinant SH2 domain proteins and unlabeled (rhodamine dye free) peptides (9 ErbB, 2 GAB1, 2 KIT, 2 MET) were generated for the surface plasmon resonance (SPR) validation study. The 6X His-tagged SH2 domain proteins used in the assay, PLCG1-C, SHC4, VAV2, TNS3, PIK3R3-C, SYK-C, PIK3R1-N, SUPT6H, CRKL, TEC, SHB, and SHC3 were produced and purified as previously described (see “SH2 and PTB domain proteins” section and Jones et al., 2006). Fresh protein stocks were generated so as to avoid bias incurred from proteins previously used in the FP assays. 13-mer peptides corresponding to ErbB1 pY801, ErbB1 pY900, ErbB1 pY978, ErbB1 pY1069, ErbB2 pY685, ErbB pY803, ErbB3 pY912, ErbB4 pY833, ErbB4 pY906, GAB1 pY183, GAB1 pY472, KIT pY570, KIT pY936, MET pY1093 and MET pY1313, were synthesized successfully for the assay using previously described approaches (see “FP competitor peptide synthesis” section). For SPR detection via the Biacore 3000 (GE HealthCare, Piscataway, NJ), His-tagged SH2 domains were immobilized on Biacore NTA sensor chips (GE HealthCare, Piscataway, NJ) pre-charged with Ni^2+ ions in one flow cell while the second served as a negative control reference cell. Peptides were introduced in solution phase to both cells and relative response units (RUs) were recorded from output sensograms. Nine concentrations of peptide and a buffer control, in duplicate, were used to determine KDs using the equilibrium method (best-fit simultaneous modeling for peptide association and disassociation curves).
For orientation: In SPR one partner is held on a chip, and binding of the other changes the refractive index at the surface.

A further test deals with T2, TNS3 SH2 domain (Homo sapiens, UniProt Q68CZ2).
T2 sequence (Q68CZ2 1172-1282 limits assumed): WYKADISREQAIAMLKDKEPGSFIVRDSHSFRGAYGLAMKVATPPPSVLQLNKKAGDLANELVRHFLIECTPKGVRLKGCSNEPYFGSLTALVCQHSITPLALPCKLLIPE
Nature of the test: FP saturation binding assay.

The target of test [3] is T3, SHC3 SH2 domain (Homo sapiens, UniProt Q92529). The test can be described thus: FP saturation binding assay.
T3 sequence (Q92529 499-590 limits assumed): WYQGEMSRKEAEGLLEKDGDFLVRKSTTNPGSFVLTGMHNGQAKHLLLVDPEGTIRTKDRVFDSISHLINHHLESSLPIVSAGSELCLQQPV
Test [4] has as its target T3, SHC3 SH2 domain. Nature of the test: Surface plasmon resonance (Biacore 3000). The format is binding. The following applies: SPR, NA = no interaction detected. Set-up: A randomly selected set of 12 recombinant SH2 domain proteins; thioredoxin; made in house; host or cells: E. coli BL21(DE3)pLysS. As to the method: as §1
(§2) Fresh protein stocks were generated so as to avoid bias incurred from proteins previously used in the FP assays. […]

Test [5] has as its target T4, PIK3R1-N SH2 domain (Homo sapiens, UniProt P27986).
T4 construct: thioredoxin; made in house; host or cells: E. coli BL21(DE3)pLysS
The test can be described thus: Surface plasmon resonance (Biacore 3000). The format is binding. The following applies: SPR, NA = no interaction detected. The protocol:
as §1, §2

Test [6] concerns the target T4, PIK3R1-N SH2 domain. The test can be described thus: biochemical. Type of test: binding. The following applies: FP, PIK3R1-N; mean; NA = no interaction detected.
In test [7] the target is T5, GRB7 SH2 domain (Homo sapiens, UniProt Q14451). Nature of the test: FP saturation binding assay. The following applies: read-out: Ki ( exp FP); competing peptide, GRB7; Ki expected from FP; NI = no interaction.
T5 sequence (Q14451 431-527 limits assumed): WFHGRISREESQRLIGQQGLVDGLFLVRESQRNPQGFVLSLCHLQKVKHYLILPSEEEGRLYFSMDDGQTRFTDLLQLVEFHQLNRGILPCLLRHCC
Test [8] has as its target T6, RASA1-N SH2 domain (Homo sapiens, UniProt P20936).
T6 sequence (P20936 181-272 limits assumed): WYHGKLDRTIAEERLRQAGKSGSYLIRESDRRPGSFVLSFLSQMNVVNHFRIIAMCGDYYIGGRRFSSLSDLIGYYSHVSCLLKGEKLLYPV
Nature of the test: FP saturation binding assay.

The target of test [9] is T5, GRB7 SH2 domain. Nature of the test: FP competition assay. Type of test: binding. Details: 6X His; thioredoxin; made in house; host or cells: E. coli BL21(DE3)pLysS. The following applies: labeled peptide ErbB3pY1197, Fig. 3 graph C, read-out: Ki (obs). The protocol:
(§3) Unlabeled phosphopeptides were synthesized with some modifications to the previously described protocol. […] Unlabeled competitor peptides were prepared at 11 serial 1∶3 dilutions in assay buffer; one control with no unlabeled competitor peptides was also included with each experimental set. The fluorescent peptide, protein, and unlabeled peptide mixtures were allowed to incubate for a minimum of 20 minutes in 384-well plates and polarization signals were measured using the Analyst GT multimode reader as previously described above. Inhibition curves were constructed by four-parameter log-logistic regression using the “drc” package in R with the parameters for maximum and minimum fluorescence fixed according to Z’ factor positive and negative control values. IC50 values were estimated from these fits under a one-site competition binding model and Ki calculated according to the equation developed by.

For test [10], the target named is T6, RASA1-N SH2 domain. The test can be described thus: FP competition assay. Type of test: binding. Details: 6X His; thioredoxin; made in house; host or cells: E. coli BL21(DE3)pLysS. The following applies: RASA1N, Fig. 3 graph A, read-out: Ki (obs). As to the method:
as §3

For the next test, the target named is T7, SRC SH2 domain (Homo sapiens, UniProt P12931).
T7 construct: between the c-Src SH2 domain and ErbB1 in our FP assay; 6X His; thioredoxin; made in house; host or cells: E. coli BL21(DE3)pLysS
T7 sequence (P12931 151-248 limits assumed): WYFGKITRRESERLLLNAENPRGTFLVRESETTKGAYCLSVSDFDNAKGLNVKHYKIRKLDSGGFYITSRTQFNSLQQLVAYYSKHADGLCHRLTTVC
The test can be described thus: FP competition assay. Type of test: binding. The following applies: labeled peptide ErbB3pY1222, Fig. 3 graph B, read-out: Ki (obs). The protocol:
as §3

SMILES strings stand for the structures. Read-outs that look alike come from different tables or passages of the source. Residues, ends and D or L forms follow the SMILES beside them.

T4 sequence (P27986 333-428 limits assumed): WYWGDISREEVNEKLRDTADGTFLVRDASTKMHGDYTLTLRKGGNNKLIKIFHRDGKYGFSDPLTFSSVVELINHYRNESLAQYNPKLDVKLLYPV

As usually defined, the Kd is the concentration at which binding is half-saturated. Consider `CC[C@H](C)[C@H](NC(=O)[C@@H](NC(=O)[C@@H](NC(=O)CNC(=O)[C@H](Cc1ccc(OP(=O)(O)O)cc1)NC(=O)[C@H](CO)NC(=O)[C@H](Cc1c[nH]c2ccccc12)NC(=O)[C@@H](NC(=O)[C@@H](N)CC(=O)O)C(C)C)C(C)C)[C@@H](C)O)C(=O)N[C@@H](Cc1c[nH]c2ccccc12)C(=O)N[C@@H](CCC(=O)O)C(=O)N[C@@H](CC(C)C)C(=O)N[C@@H](CC(=O)O)C(=O)O` [ErbB4 906] (HELM PEPTIDE1{D.V.W.S.[O=C([C@H](Cc1ccc(OP(=O)(O)O)cc1)N[*:1])[*:2]].G.V.T.I.W.E.L.D}$$$$V2.0), for which the Kd on PIK3R3-C SH2 domain [1] is 1840 nM; at PIK3R3-C SH2 domain [2], 566 nM; on TNS3 SH2 domain, 800 nM; at SHC3 SH2 domain [3] it was 540 nM; at SHC3 SH2 domain [4], 6710 nM.

Regarding `CC[C@H](C)[C@H](NC(=O)[C@@H](N)CCCCN)C(=O)N[C@@H](CCCNC(=N)N)C(=O)N[C@@H](CCCCN)C(=O)N[C@@H](Cc1ccc(OP(=O)(O)O)cc1)C(=O)N[C@H](C(=O)N[C@@H](CCSC)C(=O)N[C@@H](CCCNC(=N)N)C(=O)N[C@@H](CCCNC(=N)N)C(=O)N[C@@H](CC(C)C)C(=O)N[C@@H](CC(C)C)C(=O)N[C@@H](CCC(N)=O)C(=O)N[C@@H](CC(=O)O)C(=O)O)[C@@H](C)O` [ErbB2 685] (HELM PEPTIDE1{K.I.R.K.[O=C([C@H](Cc1ccc(OP(=O)(O)O)cc1)N[*:1])[*:2]].T.M.R.R.L.L.Q.D}$$$$V2.0), the Kd on PIK3R3-C SH2 domain [1] is 4430 nM; on PIK3R3-C SH2 domain [2] it was 1520 nM; at PIK3R1-N SH2 domain [5], 13400 nM; at PIK3R1-N SH2 domain [6], 2510 nM.

As usually defined, the Ki is the dissociation constant of the complex between target and ligand, obtained from inhibition or displacement. As for `CC(C)C[C@H](NC(=O)[C@H](Cc1ccc(OP(=O)(O)O)cc1)NC(=O)[C@H](CCC(=O)O)NC(=O)[C@@H]1CCCN1C(=O)[C@H](CC(N)=O)NC(=O)[C@@H](N)CCC(=O)O)C(=O)N[C@H](C(=O)N1CCC[C@H]1C(=O)N[C@@H](CCC(N)=O)C(=O)NCC(=O)NCC(=O)N[C@@H](C)C(=O)N[C@@H](CC(=O)O)C(=O)O)[C@@H](C)O` [ErbB2 pY1196], the Ki was greater than 20000 nM at GRB7 SH2 domain [7], 10900 nM on GRB7 SH2 domain [9], 2290 nM on RASA1-N SH2 domain [10] (labeled peptide ErbB2pY1196) and 3540 nM on RASA1-N SH2 domain [10] (labeled peptide ErbB3pY1307). This compound yielded a Kd at RASA1-N SH2 domain [8] of 1860 nM.

With `CSCC[C@H](NC(=O)[C@H](Cc1ccc(O)cc1)NC(=O)[C@H](CCC(=O)O)NC(=O)[C@H](Cc1ccc(OP(=O)(O)O)cc1)NC(=O)CNC(=O)[C@H](CC(C)C)NC(=O)[C@H](CCC(=O)O)NC(=O)[C@@H](N)CCC(=O)O)C(=O)N[C@@H](CC(=O)O)C(=O)N[C@H](C(=O)NCC(=O)N[C@@H](CO)C(=O)N[C@@H](CC(=O)O)C(=O)O)C(C)C` [ErbB3 pY1222] (HELM PEPTIDE1{E.E.L.G.[O=C([C@H](Cc1ccc(OP(=O)(O)O)cc1)N[*:1])[*:2]].E.Y.M.D.V.G.S.D}$$$$V2.0), the Ki at SRC SH2 domain amounted to 2360 nM.

The values above are taken from PMC3433420 (PLoS ONE, 2012).
